We go through 7 molecules from PMC9718795, “Caffeic acid N-[3,5-bis(trifluoromethyl)phenyl] amide as a non-steroidal inhibitor for steroid 5α-reductase type 1 using a human keratinocyte cell-based assay and molecular dynamics” (Scientific Reports, 2022).

Series [1] deals with human keratinocyte (HaCaT) cells. As to the kind of experiment: In vitro cytotoxic MTT assay against HaCaT cells. The format is cell-based. Particulars: 0.5–50 µM, 24 h. On the procedure: (§1) The cytotoxicity of caffeic acid and its amide derivatives were evaluated with two cell lines, human keratinocyte (HaCaT) and DP cells, using the common cell viability assay with MTT. HaCaT and DP cells were seeded at 1 × 10^4 cell/well in 96-well plates in a complete DMEM medium, incubated overnight, and treated with test compounds at 0–50 µM for 24 h. The stock solutions of all the test compounds were prepared in DMSO. Each compound was serially diluted in DMEM to achieve concentrations at 0.5–50 µM; DMEM was used as the negative control. After 24 h of treatment, the culture medium was removed, and cell viability was determined by adding 100 µL of 0.5 mg/mL MTT at 37 °C in darkness for 3 h. After removing the MTT solution, 100 µL of DMSO was added to each well to dissolve the purple formazan crystals. The absorbance was measured at 570 nm using a microplate reader, and the IC50 value was calculated. Each experiment was performed in triplicates.

Series [2] is described as follows: Cell viability (MTT) run in parallel with the HaCaT-based SRD5A1 inhibitory assay. Conditions: human. More on the design: species or system human.
Series [3] concerns the target T1, steroid 5α-reductase type 1 (SRD5A1) (Homo sapiens, UniProt P18405).
T1 construct: HaCaTs-produced SRD5A1 smoothly converted testosterone to DHT; endogenous in cells; host or cells: HaCaT human keratinocytes
T1 sequence (P18405 1-259): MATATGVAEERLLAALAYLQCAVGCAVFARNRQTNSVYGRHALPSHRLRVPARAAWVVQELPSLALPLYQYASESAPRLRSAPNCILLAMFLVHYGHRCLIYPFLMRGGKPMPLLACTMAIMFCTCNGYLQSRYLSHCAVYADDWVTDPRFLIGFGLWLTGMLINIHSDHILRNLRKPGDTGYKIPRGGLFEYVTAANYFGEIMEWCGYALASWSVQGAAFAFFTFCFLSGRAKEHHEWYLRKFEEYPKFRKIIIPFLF
As to the kind of experiment: HaCaT cell-based SRD5A1 inhibitory assay with direct DHT detection by HPTLC. Particulars: HaCaT, HaCaT, read-out: % Inhibition of DHT production ± SD; for inhibition at 20 µM: compound 20 µM, 24 h.

For series [4], the system named is dermal papilla (DP) cells. Kind of series: In vitro cytotoxic MTT assay against DP cells. Conditions: 0.5–50 µM, 24 h. The format is cell-based, human. On the procedure: as §1
In the next series the target is T2, HaCaTs-produced SRD5A1 (Homo sapiens, UniProt P18405).
T2 construct: HaCaTs-produced SRD5A1 smoothly converted testosterone to DHT; endogenous in cells; host or cells: HaCaT human keratinocytes
T2 sequence (P18405 1-259): T1 sequence (P18405 1-259)
Kind of series: Whole-cell-based kinetic study of HaCaT-produced SRD5A1 with HPTLC. Conditions: no inhibitor, 12 h. As for the experimental part: (§2) The in vitro whole HaCaT cell-based assay for the kinetic inhibition against SRD5A1 included culturing the cells for 48 h, treating the cells with testosterone and compound 4 for 12 h and evaluating the % intensity of DHT and cell viability using HPTLC analysis and MTT assay, respectively. The HaCaT cells were seeded and incubated as same as the method shown in 3.8. For the evaluation of dose-dependent activity of testosterone, the different concentration of testosterone (0 − 50 μM) and DMEM with 0.1% DMSO were added. […] DMEM with 0.1% DMSO was used as negative control. Then, the cells were incubated for 12 h. The collection of cell culture medium, extraction process, sample preparation and HPTLC detection were prepared by the method mentioned above (3.8). The obtaining chromatogram was visualized by CAMAG HPTLC Software vision CATS and analyzed by Image J software. The percentage of DHT intensity was calculated based on the intensity of DHT normalized by the standard of DHT at 100 μM. At the same time, the cell viability of the treated cells was assessed by the MTT assay. Each experiment was repeated in triplicate.

Series [5] is described as follows: Cell viability (MTT) in the whole-cell kinetic study. Conditions: human, HaCaT cells, testosterone 0−50 µM, read-out: Cell viabilities. Type of series: cell-based. On the procedure:
as §2

Series [6] has as its target T1, steroid 5α-reductase type 1 (SRD5A1). Details: method as in PMID 28250347. Conditions: same HaCaT cell-based assay; read-out: IC50 of SRD5A1 inhibition; cited from earlier work.
For another series, the system named is HaCaT cells. Kind of series: Cell viability (MTT) run in parallel with the HaCaT-based SRD5A1 inhibitory assay. Details: species or system human. Particulars: human, 24 h, 20 µM.
Substrate in series [7]: C[C@]12CC[C@H]3[C@@H](CCC4=CC(=O)CC[C@@]43C)[C@@H]1CC[C@@H]2O
As to the kind of experiment: Whole-cell-based kinetic study of HaCaT-produced SRD5A1 with HPTLC. More on the design: species or system human. Conditions: other: no inhibitor, Michaelis–Menten, 12 h. As for the experimental part: as §2

[8] abbreviates: HaCaT cells, compound 20 µM, HaCaT, 24 h, read-out: % Cell viability ± SD.

Like-named read-outs stand apart in the source and are kept apart here.

With `O=C(C=Cc1ccc(O)c(O)c1)Nc1ccccc1` [Compound 2, 3-(3,4-dihydroxyphenyl)-N-phenyl-2-propenamide], the “Toxicity against HaCaT cells” value in [1] was “no toxicity”. Moreover, the viability at 24 h, 20 µM in series [2] (setting [8]) came to 102.9 ± 0.4%. Further, the inhibition at 20 µM in series [3] came to 4.84 ± 2.12%. For the same molecule, the “Toxicity against DP cells” value in series [4] is reported as “no toxicity”.

As to `C[C@]12CC[C@H]3[C@@H](CCC4=CC(=O)CC[C@@]43C)[C@@H]1CC[C@@H]2O` [Testosterone, reference compound], the “Vmax in the absence of inhibitors” value on HaCaTs-produced SRD5A1 is 130.9. For the same molecule, the “% DHT intensity ± S.D.” value at HaCaTs-produced SRD5A1 (testosterone 1 µM) came out at 15.35 ± 9.10%; on HaCaTs-produced SRD5A1 (testosterone 5 µM), 43.55 ± 10.80%; at HaCaTs-produced SRD5A1 (testosterone 10 µM) it was 65.05 ± 13.06%; at HaCaTs-produced SRD5A1 (testosterone 25 µM) it was 103.52 ± 20.66%; on HaCaTs-produced SRD5A1 (testosterone 50 µM) it was 105.75 ± 11.30%. In series [2] (10 µM testosterone, substrate only, read-out: % Cell viability ± SD), the viability at 24 h, 10 µM amounted to 100%. Moreover, the inhibition at 10 µM in [3] was 0%. In series [5], the viability at 12 h is around 80%.

In the case of `C[C@]12C=CC(=O)N[C@@H]1CC[C@@H]1[C@@H]2CC[C@]2(C)[C@@H](C(=O)Nc3cc(C(F)(F)F)ccc3C(F)(F)F)CC[C@@H]12` [Dutasteride, reference compound], the viability at 24 h, 2.5 µM in series [2] (HaCaT cells, 2.5 µM, positive control, HaCaT, 24 h, read-out: % Cell viability ± SD) worked out at 88.14 ± 0.11%. Further, the inhibition at 2.5 µM in [3] was determined as 100%.

Turning to `CC(C)(O)c1cc2c(o1)C(=O)c1ccccc1C2=O` [avicequinone C], the half-inhibitory concentration (IC50) in series [6] is 4.45 ± 0.42 µM.

For the molecule `O=C(O)C=Cc1ccc(O)c(O)c1` [Compound 1, 3,4-dihydroxycinnamic acid], in series [1], the “Toxicity against HaCaT cells” value is given as “no toxicity”. Further, the “% Cell viability ± SD” value in the series with HaCaT cells is listed as 86.38 ± 5.70%. For the same molecule, the viability at 24 h, 20 µM in series [2] (% Cell viability ± SD) turned out to be 86%. For the same molecule, the “Toxicity against DP cells” value in series [4] is on record as “no toxicity”.

For the molecule `CC(C)(C)NC(=O)C=Cc1ccc(O)c(O)c1` [Compound 3, 3-(3,4-dihydroxyphenyl)-N-(1,1-dimethylethyl)-2-propenamide], the “Toxicity against HaCaT cells” value in series [1] is given as “no toxicity”. Further, in [2] (setting [8]), the viability at 24 h, 20 µM amounted to 102 ± 2.09%. In series [3], the inhibition at 20 µM is 2 ± 2.12%. Also, in series [4], the “Toxicity against DP cells” value was “no toxicity”.

B1: HaCaTs-produced SRD5A1 (Homo sapiens) (protein)
chain: T1 sequence (P18405 1-259)
notes: HaCaTs-produced SRD5A1 smoothly converted testosterone to DHT; endogenous in cells; host or cells: HaCaT human keratinocytes
As for B1, the Michaelis-Menten constant (Km) in [7] worked out at 9.287 µM.

For orientation: inhibition means the drop in the measured response relative to a control, in per cent. As usually defined, the IC50 is the concentration that gives 50% inhibition. As a reminder, the Km is the concentration of substrate that gives half-maximal velocity.
